Results published in patent US6028092A, “Salts of N-(4-Oxo-2-(1H-tetrazoyl-5-yl)-4H-1-benzopyran-8-yl)-4-(4-phenylbutoxy)b enzamide” (SmithKline Beecham p.l.c, priority 1995, dated 2000).
≈ marks a conversion by molar mass, not a printed value. Where two headings read alike, the source gives them in different places.

Columns and labels:
[1] = Solubility of Compound 1 in 50% 0.1M salt solution (pH7)/50% absolute alcohol; format: physicochemical
Source text: Solubility of Compound 1 in 50% 0.1M salt solution (pH7)/50%

[2] = Solubility of Compound 1 salts in water, ethanol and PEG 400; format: physicochemical
[3] = rat, in vivo, po
[4] = In-situ solubilisation: solubility of Compound 1 in 50% acetate solution (0.1M) / 50% ethanol; format: physicochemical
Procedure: Although the salts of Compound 1 are freely soluble in solvents such as ethanol further improvements have been observed when the salts are prepared in situ.
Solubility of Compound 1 in 50% Acetate Solution (0.1M) and 50%
(§1) In the presence of excess acetate the salts formed in situ are freely soluble even in an aqueous alcoholic medium with a water content of 50%. With lower water contents or in the absence of water the solubility can be improved further. For example when PEG 200 (30 mL) sodium acetate (2.5 g) and Compound 1 (7.4 g) were triturated in a mortar and pestle the sodium salt of Compound 1 formed in-situ was solubilised to a concentration greater than 200 g/l.

[5] = Solubility of Compound 1 in 50% solvent systems/50% sodium phosphate (pH7) at different molarities; format: physicochemical
Procedure: The scope of in-situ solubilisation in terms of solvent type and buffer concentration can be seen in Table 4. In these experiments the sodium salt of Compound 1 was prepared through the presence of varying concentrations of sodium phosphate buffer solution with 50% of the test solvent.
Solubility of Compound 1 in 50% solvent systems/50% sodium
phosphate (pH7) at different molarities
No value was obtained for those N/T samples because the solvents were immiscible with the buffer solution at those concentrations.

[6] = In-situ solubilisation of sodium salt of Compound 1 in PEG 200 by trituration with sodium acetate; format: physicochemical; details: organic solvent or mixture; PEG 200 (30 mL), sodium acetate (2.5 g), Compound 1 (7.4 g); read-out: concentration solubilised in-situ
Procedure: as §1

SMILES: O=C(Nc1cccc2c(=O)cc(-c3nnn[nH]3)oc12)c1ccc(OCCCCc2ccccc2)cc1 [Ethylenediamine]
- solubility [1]: 1700 µg/mL

SMILES: O=C(Nc1cccc2c(=O)cc(-c3nnn[nH]3)oc12)c1ccc(OCCCCc2ccccc2)cc1 [Ammonium]
- Solubility in PEG 400 ([2]; PEG 400): > 10000 µg/mL
- Solubility in ethanol [2]: 9330 µg/mL
- Solubility in water ([2]; water): 280 µg/mL
- absorption, in words [3]: reasonably well absorbed
- increase of absolute bioavailability relative to the parent acid [3]: approximately tenfold
- AUC)-t or infinity ([3]; 20 mg/kg): 81490.5 ± 23670.3 µg·min/mL
- BA ([3]; 20 mg/kg): 7.15 ± 2.08%
- CMAX ([3]; 20 mg/kg): 548.5 ± 165.7 ng/mL
- TMAX ([3]; 20 mg/kg): 53.1 ± 29.8 min
- AUC)-t or infinity ([3]; 80 mg/kg): 66722.9 ± 16472.6
- BA ([3]; 80 mg/kg): 1.46 ± 0.36%
- CMAX ([3]; 80 mg/kg): 264.5 ± 64.06 ng/mL
- TMAX ([3]; 80 mg/kg): 150.5 ± 34.1 min
- bioavailability (in vivo; rat, in vivo, po, 20 mg/kg, absolute bioavailability): ~7%

SMILES: O=C(Nc1cccc2c(=O)cc(-c3nnn[nH]3)oc12)c1ccc(OCCCCc2ccccc2)cc1 [Compound 1, N-[4-Oxo-2-(1H-tetrazol-5-yl)-4H-1-benzopyran-8-yl]-4-(4-phenylbutoxy)benzamide]
- solubility ([2]; water, aqueous, free acid, read-out: aqueous solubility of Compound 1 free acid): < 10 µg/mL
- solubility ([4]; 0.1m ammonium acetate/ethanol 50:50, organic solvent or mixture, ammonium acetate 0.1M 50% / ethanol 50%): 11500 µg/mL (≈ 23.9 mM)
- solubility ([4]; 0.1m calcium acetate/ethanol 50:50, organic solvent or mixture, calcium acetate 0.1M 50% / ethanol 50%): 400 µg/mL (≈ 0.831 mM)
- solubility ([4]; 0.1m potassium acetate/ethanol 50:50, organic solvent or mixture, potassium acetate 0.1M 50% / ethanol 50%): 12200 µg/mL (≈ 25.3 mM)
- solubility ([4]; 0.1m sodium acetate/ethanol 50:50, organic solvent or mixture, sodium acetate 0.1M 50% / ethanol 50%): 11000 µg/mL (≈ 22.8 mM)
- solubility ([5]; 50% ethanol/0.1m sodium phosphate, pH 7, organic solvent or mixture, 50% ethanol / 50% sodium phosphate pH7, 0.1M): 16200 µg/mL (≈ 33.6 mM)
- solubility ([5]; 50% glycerol/0.1m sodium phosphate, pH 7, organic solvent or mixture, 50% glycerol / 50% sodium phosphate pH7, 0.1M): 200 µg/mL (≈ 0.415 mM)
- solubility ([5]; 50% glycerol/0.25m sodium phosphate, pH 7, organic solvent or mixture, 50% glycerol / 50% sodium phosphate pH7, 0.25M): 50 µg/mL (≈ 0.104 mM)
- solubility ([5]; 50% glycerol/0.5m sodium phosphate, pH 7, organic solvent or mixture, 50% glycerol / 50% sodium phosphate pH7, 0.5M): 40 µg/mL (≈ 0.0831 mM)
- solubility ([5]; 50% glycofurol/0.1m sodium phosphate, pH 7, 50% glycofurol / 50% sodium phosphate pH7, 0.1M): 19500 µg/mL (≈ 40.5 mM)
- solubility ([5]; 50% methanol/0.1m sodium phosphate, pH 7, organic solvent or mixture, 50% methanol / 50% sodium phosphate pH7, 0.1M): 2200 µg/mL (≈ 4.57 mM)
- solubility ([5]; 50% methanol/0.25m sodium phosphate, pH 7, organic solvent or mixture, 50% methanol / 50% sodium phosphate pH7, 0.25M): 1100 µg/mL (≈ 2.28 mM)
- solubility ([5]; 50% methanol/0.5m sodium phosphate, pH 7, organic solvent or mixture, 50% methanol / 50% sodium phosphate pH7, 0.5M): 900 µg/mL (≈ 1.87 mM)
- solubility ([5]; 50% n-propanol/0.1m sodium phosphate, pH 7, organic solvent or mixture, 50% n-propanol / 50% sodium phosphate pH7, 0.1M): 18000 µg/mL (≈ 37.4 mM)
- solubility ([5]; 50% n-propanol/0.25m sodium phosphate, pH 7, organic solvent or mixture, 50% n-propanol / 50% sodium phosphate pH7, 0.25M): 43100 µg/mL (≈ 89.5 mM)
- solubility ([5]; 50% n-propanol/0.5m sodium phosphate, pH 7, organic solvent or mixture, 50% n-propanol / 50% sodium phosphate pH7, 0.5M): 56300 µg/mL (≈ 117 mM)
- solubility ([5]; 50% peg 400/0.1m sodium phosphate, pH 7, organic solvent or mixture, 50% PEG 400 / 50% sodium phosphate pH7, 0.1M): 20500 µg/mL (≈ 42.6 mM)
- solubility ([5]; 50% peg 400/0.25m sodium phosphate, pH 7, organic solvent or mixture, 50% PEG 400 / 50% sodium phosphate pH7, 0.25M): 23700 µg/mL (≈ 49.2 mM)
- solubility ([5]; 50% peg 400/0.5m sodium phosphate, pH 7, organic solvent or mixture, 50% PEG 400 / 50% sodium phosphate pH7, 0.5M): 26600 µg/mL (≈ 55.2 mM)
- solubility ([5]; 50% propylene glycol/0.1m sodium phosphate, pH 7, organic solvent or mixture, 50% propylene glycol / 50% sodium phosphate pH7, 0.1M): 1700 µg/mL (≈ 3.53 mM)
- solubility ([5]; 50% propylene glycol/0.25m sodium phosphate, pH 7, organic solvent or mixture, 50% propylene glycol / 50% sodium phosphate pH7, 0.25M): 700 µg/mL (≈ 1.45 mM)
- solubility ([5]; 50% propylene glycol/0.5m sodium phosphate, pH 7, organic solvent or mixture, 50% propylene glycol / 50% sodium phosphate pH7, 0.5M): 500 µg/mL (≈ 1.04 mM)
- solubility ([5]; 50% thf/0.1m sodium phosphate, pH 7, organic solvent or mixture, 50% THF / 50% sodium phosphate pH7, 0.1M): 22300 µg/mL (≈ 46.3 mM)
- solubility ([5]; 50% thf/0.25m sodium phosphate, pH 7, organic solvent or mixture, 50% THF / 50% sodium phosphate pH7, 0.25M): 49300 µg/mL (≈ 102 mM)
- solubility ([5]; 50% thf/0.5m sodium phosphate, pH 7, organic solvent or mixture, 50% THF / 50% sodium phosphate pH7, 0.5M): 101000 µg/mL (≈ 210 mM)
- TMAX ([3]; 80 mg/kg): 22.6 ± 14.9 min
- half-life (in vivo; rat, in vivo, iv, 3 mg/kg): 23.2 ± 28.4 min
- AUC (in vivo; rat, in vivo, iv, 3 mg/kg, AUC)-t or infinity): 2850 µg·h/mL
- AUC (in vivo; rat, in vivo, po, 80 mg/kg, AUC)-t or infinity): 607 µg·h/mL
- bioavailability (in vivo; rat, in vivo, po, 80 mg/kg, BA): 0.8 ± 0.16%
- CMAX (in vivo; rat, in vivo, po, 80 mg/kg, CMAX): 207 ± 57.2 ng/mL

SMILES: O=C(Nc1cccc2c(=O)cc(-c3nnn[nH]3)oc12)c1ccc(OCCCCc2ccccc2)cc1 [Calcium]
- Solubility in PEG 400 ([2]; PEG 400): 8420 µg/mL
- Solubility in ethanol [2]: 360 µg/mL

SMILES: O=C(Nc1cccc2c(=O)cc(-c3nnn[nH]3)oc12)c1ccc(OCCCCc2ccccc2)cc1 [Tris]
- solubility ([1]; 50% salt solution/50% ethanol, pH 7, organic solvent or mixture, read-out: Solubility): 1600 µg/mL

SMILES: O=C(Nc1cccc2c(=O)cc(-c3nnn[nH]3)oc12)c1ccc(OCCCCc2ccccc2)cc1 [Sodium]
- Solubility in ethanol [2]: > 10000 µg/mL
- solubility ([2]; peg 400, organic solvent or mixture, PEG 400, read-out: Solubility in PEG 400): > 10000 µg/mL
- Solubility in water ([2]; water): 40 µg/mL
- solubility [6]: > 200000 µg/mL

SMILES: O=C(Nc1cccc2c(=O)cc(-c3nnn[nH]3)oc12)c1ccc(OCCCCc2ccccc2)cc1 [Meglumine]
- Solubility in PEG 400 ([2]; PEG 400): 9200 µg/mL
- Solubility in ethanol [2]: 3060 µg/mL
- Solubility in water ([2]; water): 340 µg/mL
- absorption, in words [3]: evidence of enhanced absorption
- increase of absolute bioavailability relative to the parent acid [3]: approximately fourfold
- AUC)-t or infinity ([3]; 20 mg/kg): 35290.4 ± 11719.1
- BA ([3]; 20 mg/kg): 3.09 ± 1.03%
- CMAX ([3]; 20 mg/kg): 207.7 ± 112.2 ng/mL
- AUC)-t or infinity ([3]; 80 mg/kg): 59012.7 ± 17096.3 µg·min/mL
- BA ([3]; 80 mg/kg): 1.29 ± 0.37%
- CMAX ([3]; 80 mg/kg): 263.0 ± 139.5 ng/mL
- TMAX ([3]; 80 mg/kg): 97.5 ± 66.2 min
- TMAX (in vivo; rat, in vivo, po, 20 mg/kg, TMAX): 53.1 min
